Earlier results in US6013636A, “Anthelmintic macrocyclic lactone compositions” (Ashmont Holdings Limited, priority 1995, dated 2000).

Key:
[1] = sesame oil, soya bean oil and corn oil

| Compound | Solubility in oils [1] | Stability in water |
| --- | --- | --- |
| CO/N=C1\C[C@]2(C[C@@H]3C[C@@H](C/C=C(\C)C[C@@H](C)/C=C/C=C4\CO[C@@H]5[C@H](O)C(C)=C[C@@H](C(=O)O3)[C@]45O)O2)O[C@H](/C(C)=C/C(C)C)[C@H]1C [moxidectin] | sparingly soluble | oxidise and break down in water |
| CO[C@H]1C[C@H](O[C@H]2[C@H](C)O[C@@H](O[C@@H]3/C(C)=C/C[C@@H]4C[C@@H](C[C@]5(C=C[C@H](C)[C@@H](C6CCCCC6)O5)O4)OC(=O)[C@@H]4C=C(C)[C@@H](O)[C@H]5OC/C(=C\C=C\[C@@H]3C)[C@]54O)C[C@@H]2OC)O[C@@H](C)[C@@H]1O [doramectin] | sparingly soluble | oxidise and break down in water |
| ivermectin | sparingly soluble | oxidise and break down in water |
